Assays:
Type in all cases: in vivo, New Zealand White rabbit
[1] = test system: 0.2% Cholesterol-Fed New Zealand White Rabbits; assay: Serum total, LDL and HDL cholesterol and triglycerides in 0.2% cholesterol-fed rabbits, concurrent 0.4% drug (Example 20); design: triglycerides: reference not given here; settings: 0.2% cholesterol/0.4% drug diet; for cholesterol (total) % Control / HDL cholesterol % Control / LDL cholesterol % Control: % of control; for HDL cholesterol % Control / LDL cholesterol % Control: serum, gel filtration HPLC
Excerpt: (§1) NZW rabbits (female, aged 3-4 months, weighing less than 3 Kg), six in each group, were fed a control diet of 0.2% cholesterol (100 g rabbit chow daily containing 0.2 g cholesterol) or a diet of 0.2% cholesterol/0.4% drug (100 g rabbit chow daily containing 0.2 g cholesterol and 0.4 g of drag). For Compound A, the rabbits were sacrificed by intravenous injection of pentobarbital after 56 days. For Compound G, K, E and H, the rabbits were sacrificed by intravenous injection of pentobarbital after 7 days. Plasma or serum was collected and cholesterol levels were determined using the enzymatic method of Mao, et at., Clin. Chem. (1983) 29:1890-1897. Liver weight and body weights were determined. Serum HDL and LDL cholesterol levels were determined using gel filtration HPLC modified from Kieft, K. A., et at., J. Lipid Res., 32:859-861 (1991), using Roche enzymatic cholesterol reagents. Triglyceride levels were determined by Cobas Automated Analyzer using Roche enzymatic reagents.

[2] = test system: Normolipidemic New Zealand Rabbits; assay: Reduction in cholesterol levels of normolipidemic rabbits by concurrent administration of 0.5% Compound A (Example 21); settings: normal diet with 0.5% drug; for Cholesterol: serum, n = 4
Protocol: New Zealand White rabbits (female, aged 3-4 months, weighing less than 3 kg), four in each group, were fed a normal diet (100 g rabbit chow daily) or a diet of 0.5% drug (100 g rabbit chow daily containing 0.5 g Compound A). Serum was collected and cholesterol levels were determined according to the method of Mao, et at., Clin. Chem. (1983) 29:1890-1897.

[3] = test system: 0.2% Cholesterol-Fed New Zealand White Rabbits; assay: Reduction of cholesterol levels of 0.2% cholesterol-fed rabbits by concurrent administration of 0.4% Compound A (Example 19); settings: for Cholesterol: plasma or serum, n = 6
Protocol: NZW rabbits (female, aged 3-4 months, weighing less than 3 Kg), six in each group, were fed a control diet of 0.2% cholesterol (100 g rabbit chow daily containing 0.2 g cholesterol) or a diet of 0.2% cholesterol/0.4% drag (100 g rabbit chow daily containing 0.2 g cholesterol and 0.4 g Compound A). After 56 days, the rabbits were sacrificed by intravenous injection of pentobarbital. Plasma or serum was collected and cholesterol levels were determined using the enzymatic method of Mao, et at., Clin. Chem. (1983) 29: 1890-1897.

[4] = test system: 1% Cholesterol-Fed New Zealand White Rabbits; assay: Reduction of cholesterol levels of 1% cholesterol-fed rabbits by concurrent administration of 0.5% Compound A (Example 18); settings: 1% cholesterol/0.5% drug diet; for Cholesterol: plasma or serum, n = 6
Protocol: New Zealand Whim (NZW) rabbits (female, aged 3-4 months, weighing less than 3 kg) six in each group, were fed a control diet of 1% cholesterol (100 g rabbit chow daily containing 1 g cholesterol) or a diet of 1% cholesterol/0.5% drag (100 g rabbit chow daily containing 1 g cholesterol and 0.5 g Compound A). After 56 days, the rabbits were sacrificed by intravenous injection of pentobarbital. Plasma or serum was collected and cholesterol levels were determined using the enzymatic method of Mao, et at., Clin. Chem. (1983) 29:1890-1897.

[5] = test system: 0.2% Cholesterol-Fed New Zealand White Rabbits; assay: Liver weight / body weight ratio in 0.2% cholesterol-fed rabbits, concurrent 0.4% drug (Example 20); settings: 0.2% cholesterol/0.4% drug diet
Excerpt: as §1

Structure (SMILES): CC(C)(C)c1cc(SC[Si](C)(C)c2ccccc2)cc(C(C)(C)C)c1O [Compound A, 2,6-Di-t-butyl-4[(dimethylphenylsilyl)methylthio]phenol]
- triglycerides ([1]; 56 days): 366%
- cholesterol (total) % Control ([1]; 56 days): 52%
- HDL cholesterol % Control ([1]; 56 days): 75%
- LDL cholesterol % Control ([1]; 56 days): 42%
- Cholesterol ([2]; day 0): 43.5 ± 4 mg/dL
- Cholesterol ([2]; day 8): 69.7 ± 6 mg/dL
- Cholesterol ([2]; day 14): 54.8 ± 8 mg/dL
- level of cholesterol significantly reduced by ([2]; day 23, compared to control rabbits): about 29%
- Cholesterol ([2]; day 23): 58.3 ± 6 mg/dL
- reduction of cholesterol ([3]; 56 days, 0.2% cholesterol/0.4% drug diet): 64%
- cholesterol lowering (in words) ([3]; administration for 56 days, 0.2% cholesterol-fed rabbits): significant cholesterol lowering
- Cholesterol ([3]; day 0, 0.2% cholesterol/0.4% drug diet): 66 ± 8 mg/dL
- Cholesterol ([3]; day 7, 0.2% cholesterol/0.4% drug diet): 154 ± 17 mg/dL
- Cholesterol ([3]; day 14, 0.2% cholesterol/0.4% drug diet): 223 ± 32 mg/dL
- Cholesterol ([3]; day 28, 0.2% cholesterol/0.4% drug diet): 291 ± 59 mg/dL
- Cholesterol ([3]; day 42, 0.2% cholesterol/0.4% drug diet): 357 ± 89 mg/dL
- Cholesterol ([3]; day 56, 0.2% cholesterol/0.4% drug diet): 337 ± 100 mg/dL
- Cholesterol ([4]; day 0): 59 ± 8 mg/dL
- Cholesterol ([4]; day 14): 684 ± 99 mg/dL
- Cholesterol ([4]; day 28): 954 ± 126 mg/dL
- Cholesterol ([4]; day 42): 1118 ± 164 mg/dL
- Cholesterol ([4]; day 56): 1035 ± 152 mg/dL
- reduction of serum cholesterol ([4]; day 56, vs control): 57%
- liver wt/body wt ratio ([5]; 56 days): 120%

Structure (SMILES): CC(C)(C)c1cc(OC[Si](C)(C)c2ccccc2)cc(C(C)(C)C)c1O [Compound G]
- triglycerides ([1]; 7 days): 104%
- cholesterol (total) % Control ([1]; 7 days): 72%
- HDL cholesterol % Control ([1]; 7 days): 81%
- LDL cholesterol % Control ([1]; 7 days): 69%
- liver wt/body wt ratio ([5]; 7 days): 104%

Structure (SMILES): COc1ccc([Si](C)(C)COc2cc(C(C)(C)C)c(O)c(C(C)(C)C)c2)cc1 [Compound H, 2,6-Di-t-butyl-4[(dimethyl-4-methoxyphenylsilyl)methyloxy]phenol]
- triglycerides ([1]; 7 days): 73%
- cholesterol (total) % Control ([1]; 7 days): 54%
- HDL cholesterol % Control ([1]; 7 days): 123%
- LDL cholesterol % Control ([1]; 7 days): 66%
- liver wt/body wt ratio ([5]; 7 days): 110%

Structure (SMILES): COc1ccccc1[Si](C)(C)COc1cc(C(C)(C)C)c(O)c(C(C)(C)C)c1 [Compound K, 2,6-Di-t-butyl-4-[(dimethy 1-2-methoxyphenylsilyl)methyloxy]phenol]
- triglycerides ([1]; 7 days): 131%
- cholesterol (total) % Control ([1]; 7 days): 77%
- HDL cholesterol % Control ([1]; 7 days): 217%
- LDL cholesterol % Control ([1]; 7 days): 61%
- liver wt/body wt ratio ([5]; 7 days): 90%

Structure (SMILES): CC(C)(C)c1cc(OC[Si](C)(C)c2ccc(Cl)cc2)cc(C(C)(C)C)c1O [E, 2,6 Di-t-butyl-4[(4-chlorophenyldimethylsilyl)methyloxy]phenol]
- triglycerides ([1]; 7 days): 82%
- cholesterol (total) % Control ([1]; 7 days): 87%
- HDL cholesterol % Control ([1]; 7 days): 109%
- LDL cholesterol % Control ([1]; 7 days): 89%
- liver wt/body wt ratio ([5]; 7 days): 93%

Source: patent US5677291A, “Method of lowering serum cholesterol levels with 2,6-di-alkyl-4-silyl-phenols” (Hoechst Marion Roussel, Inc., priority 1996, dated 1997)
